Values of other authors in US20030181371A1, “Compositions and methods of using collajolie” (Angiotech Pharmaceuticals, Inc., priority 2001, published 2003).

Assays:
[1] = not given; remark: listed apart in the source

Compound | well tolerated daily dosage [mg] | other results
CN(C)[C@@H]1C(O)=C(C(N)=O)C(=O)[C@@]2(O)C(O)=C3C(=O)c4c(O)cccc4[C@@](C)(O)C3C[C@@H]12 (stereo in doubt) [tetracycline, 4-(dimethylamino)-1,4,4a,5,5a,6,11,12a-octahydro-3,6,10,12,12a-pentahydroxy-6-methyl-1,11-dioxo-2-naphthacenecarboxamide] | 1000 | –
C[C@H]1c2cccc(O)c2C(=O)C2=C(O)[C@]3(O)C(=O)C(C(N)=O)=C(O)[C@@H](N(C)C)[C@@H]3[C@@H](O)[C@@H]21 [doxycycline, α-6-deoxy-5-hydroxy-tetracycline] | 100 | –
CNC(=O)[C@@H](NC(=O)[C@H](CC(C)C)[C@H](O)C(=O)NO)C(C)(C)C [Marimistat] | – | established well tolerated single daily dose (single daily dose): 50 mg
CNC(=O)[C@H](Cc1ccccc1)NC(=O)[C@H](CC(C)C)[C@H](CSc1cccs1)C(=O)NO [Batimistat] | – | solubility [1]: highly insoluble
CN(C)c1ccc(O)c2c1C[C@H]1C[C@H]3[C@H](N(C)C)C(O)=C(C(N)=O)C(=O)[C@@]3(O)C(O)=C1C2=O [minocycline, 7-dimethylamino-6-dimethyl-6-deoxytetracycline] | 200 | –
